27 compounds from patent US9265781B2, “Process for producing a particulate composition comprising anhydrous crystalline 2-O-alpha-D-glucosyl-L-ascorbic acid” (HAYASHIBARA CO., LTD., priority 2009, dated 2016) can be followed below.

What all share (assay type): physicochemical
Data set [1] can be described thus: Caking test (Experiment 1-4). Details: key: “Caked”, (+): Sample clearly keeps the hemispherical shape of the bottom of the tube even when placed on the plate; “Slightly caked”, (±): Sample slightly but distinguishably shows the hemispherical shape of the bottom of the tube; “Not caked” (−): Sample does not keep the hemispherical shape of the bottom of the tube. As to conditions: 1 g in 14-ml polypropylene tube, 50° C., 24 hours, macroscopic observation. As for the experimental part: The following experiment was performed to investigate the caking of respective Test samples 1 to 4: One gram aliquots of each of Test samples 1 to 4, prepared in Experiment 1-1, were separately filled into “FALCON TUBE 2059”, a product name of a 14-ml polypropylene cylindrical tube (1.7 cm in diameter, 10 cm in height) having a hemispherical bottom shape and a cap, commercialized by Becton, Dickinson and Company, New Jersey, USA. The tubes were uprightly set to a tube rack and allowed to stand for 24 hours, after the tube rack was placed in “IC-410”, a product name of an incubator commercialized Advantec Toyo Kaisha, Ltd., Tokyo, Japan, controlled at 50° C. After the incubation, the tubes were taken out from the incubator, followed by removing each cap, taking out each test sample from each tube to place it on a black-plastic-plane plate by turning the tubes upside down slowly, and macroscopically observing the conditions of the resulting test samples.

Data set [2] in a line: Solubility in hydrophilic solvent, 30% 1,3-butylene glycol (Experiment 6). As to conditions: same test as in Experiment 6. The text has this:
Any one of the above test samples and the particulate compositions of Examples 1 to 4 was weighed 0.25 g and placed in “FALCON TUBE 2059”, a product name of a 14-ml polypropylene cylindrical tube having a hemispherical bottom shape and a cap, commercialized by Becton, Dickinson and Company, New Jersey, USA. […]

Data set [3] in a line: Storage stability test (Experiment 3-2). As to conditions: 10 kg in open polyethylene-double-bag in uncapped steel can, 45 days; flowability and caked state. Details: key: “Caked” (+), clump(s) is/are detected in a test sample and the flowability of the test sample has lowered in comparison with that at the initiation of the test; “Not caked” (−), no clump is detected in a test sample and the flowability of the test sample has not been changed in comparison with that at the initiation of the test. An excerpt: To confirm that the caking test conducted in Experiment 1-4, etc., is a proper test for evaluating the caking of a particulate composition containing anhydrous crystalline ascorbic acid 2-glucoside when actually stored, Test sample 1 obtained in Experiment 1-1, Test samples 10 to 15 obtained in Experiment 3-1, and Test sample 16 were subjected to a storage stability test which was designed by taking account of conditions, environment, and period of time for actual storage of a particulate composition containing anhydrous crystalline ascorbic acid 2-glucoside.
Ten kilogram aliquots of any of Test samples 1 and 10 to 16 were respectively weighed and placed in a polyethylene-double-bag (800 mm by 600 mm) for each test sample. Then, each bag was placed in a 18-liter steel can in such a manner of allowing the opening part of each bag to open and stand upright without closing the opening part, allowing the bags to stand without capping the steel cans, and storing for 45 days in a room away from a relatively high temperature and humidity. After 45 days storage, each polyethylene-double-bag enclosing any of the test samples was taken out from the cans, and the samples were taken out from the bags and placed on a black-plastic-plane-plate for macroscopic observation of their flowabilities and caked states.
The test samples were judged about their caking by the following criteria: “Caked” (+), clump(s) is/are detected in a test sample and the flowability of the test sample has lowered in comparison with that at the initiation of the test; and “Not caked” (−), no clump is detected in a test sample and the flowability of the test sample has not been changed in comparison with that at the initiation of the test. The storage form of each test sample in the storage stability test is the same as that of a quasi-drug-grade powder that is commercially distributed and stored, except for not closing the opening part of the bag with a rubber band, not putting in any desiccant, and being stored in a steel can without closing it with a lid. The above three differences were of those, which had been set as a storage environment for a storage test that was slightly harder than an actual storage environment, to expedite the test results. The results are in Table 3 in parallel.

With `O=C1O[C@H]([C@@H](O)CO)C(O)=C1O[C@H]1O[C@H](CO)[C@@H](O)[C@H](O)[C@H]1O` [Comparative Example 1, 2-O-α-D-glucosyl-L-ascorbic acid], the Caking entry in data set [1] is “+”. The “Solubility in 1,3-butylene glycol (judgement in words)” value (“Solubility in 1,3-butylene glycol” below) in data set [2] is recorded as “Passable solubility”. `O=C1O[C@H]([C@@H](O)CO)C(O)=C1O[C@H]1O[C@H](CO)[C@@H](O)[C@H](O)[C@H]1O` [Test sample 8, 2-O-α-D-glucosyl-L-ascorbic acid]: the Caking result in data set [1] is given as “±”. As for `O=C1O[C@H]([C@@H](O)CO)C(O)=C1O[C@H]1O[C@H](CO)[C@@H](O)[C@H](O)[C@H]1O` [Test sample 3, 2-O-α-D-glucosyl-L-ascorbic acid], the Caking entry in data set [1] was “+”. As for `O=C1O[C@H]([C@@H](O)CO)C(O)=C1O[C@H]1O[C@H](CO)[C@@H](O)[C@H](O)[C@H]1O` [Test sample 10, 2-O-α-D-glucosyl-L-ascorbic acid], the Caking entry in data set [1] was “+”. Also, the Storage stability entry in data set [3] is “+”.

With `O=C1O[C@H]([C@@H](O)CO)C(O)=C1O[C@H]1O[C@H](CO)[C@@H](O)[C@H](O)[C@H]1O` [Example 1, 2-O-α-D-glucosyl-L-ascorbic acid], the Caking entry in data set [1] is listed as “−”. Besides, the Storage stability result in data set [3] was “−”. As to `O=C1O[C@H]([C@@H](O)CO)C(O)=C1O[C@H]1O[C@H](CO)[C@@H](O)[C@H](O)[C@H]1O` [Test sample 22, 2-O-α-D-glucosyl-L-ascorbic acid], the Caking entry in data set [1] is reported as “−”. In addition, in data set [3], the Storage stability result is on record as “−”. As for `O=C1O[C@H]([C@@H](O)CO)C(O)=C1O[C@H]1O[C@H](CO)[C@@H](O)[C@H](O)[C@H]1O` [Example 5, 2-O-α-D-glucosyl-L-ascorbic acid], in data set [1], the Caking entry is listed as “−”. Also, the “Solubility in 1,3-butylene glycol” value in data set [2] is “Passable solubility”. Take `O=C1O[C@H]([C@@H](O)CO)C(O)=C1O[C@H]1O[C@H](CO)[C@@H](O)[C@H](O)[C@H]1O` [Example 8, 2-O-α-D-glucosyl-L-ascorbic acid]: in data set [1], the Caking entry is “− and ±”. The “Solubility in 1,3-butylene glycol” value in data set [2] is reported as “Passable solubility”. For the compound `O=C1O[C@H]([C@@H](O)CO)C(O)=C1O[C@H]1O[C@H](CO)[C@@H](O)[C@H](O)[C@H]1O` [Test sample 1, 2-O-α-D-glucosyl-L-ascorbic acid], in data set [1], the Caking result is recorded as “−”. The Storage stability entry in data set [3] is “−”. As for `O=C1O[C@H]([C@@H](O)CO)C(O)=C1O[C@H]1O[C@H](CO)[C@@H](O)[C@H](O)[C@H]1O` [Test sample 6, 2-O-α-D-glucosyl-L-ascorbic acid], in data set [1], the Caking result was “−”. For the compound `O=C1O[C@H]([C@@H](O)CO)C(O)=C1O[C@H]1O[C@H](CO)[C@@H](O)[C@H](O)[C@H]1O` [Test sample 7, 2-O-α-D-glucosyl-L-ascorbic acid], in data set [1], the Caking result is recorded as “−”. Same read-out and setting: as for `O=C1O[C@H]([C@@H](O)CO)C(O)=C1O[C@H]1O[C@H](CO)[C@@H](O)[C@H](O)[C@H]1O` [Test sample 9, 2-O-α-D-glucosyl-L-ascorbic acid], the entry is “+”. `O=C1O[C@H]([C@@H](O)CO)C(O)=C1O[C@H]1O[C@H](CO)[C@@H](O)[C@H](O)[C@H]1O` [Test sample 19, 2-O-α-D-glucosyl-L-ascorbic acid]: in data set [1], the Caking entry is “−”. Further, in data set [3], the Storage stability entry is “−”.

With `O=C1O[C@H]([C@@H](O)CO)C(O)=C1O[C@H]1O[C@H](CO)[C@@H](O)[C@H](O)[C@H]1O` [Example 3, 2-O-α-D-glucosyl-L-ascorbic acid], the Caking result in data set [1] was “−”. In data set [3], the Storage stability entry is listed as “−”.

Regarding `O=C1O[C@H]([C@@H](O)CO)C(O)=C1O[C@H]1O[C@H](CO)[C@@H](O)[C@H](O)[C@H]1O` [Test sample 20, 2-O-α-D-glucosyl-L-ascorbic acid], the Caking result in data set [1] was “+”. In data set [3], the Storage stability result is reported as “+”. In the case of `O=C1O[C@H]([C@@H](O)CO)C(O)=C1O[C@H]1O[C@H](CO)[C@@H](O)[C@H](O)[C@H]1O` [Comparative Example 2, 2-O-α-D-glucosyl-L-ascorbic acid], the Caking entry in data set [1] is given as “+”. The “Solubility in 1,3-butylene glycol” value in data set [2] is “Passable solubility”.

As to `O=C1O[C@H]([C@@H](O)CO)C(O)=C1O[C@H]1O[C@H](CO)[C@@H](O)[C@H](O)[C@H]1O` [Test sample 28, 2-O-α-D-glucosyl-L-ascorbic acid], the Caking result in data set [1] is on record as “+”.

As for `O=C1O[C@H]([C@@H](O)CO)C(O)=C1O[C@H]1O[C@H](CO)[C@@H](O)[C@H](O)[C@H]1O` [Test sample 5, 2-O-α-D-glucosyl-L-ascorbic acid], the Caking entry in data set [1] is “−”. As to `O=C1O[C@H]([C@@H](O)CO)C(O)=C1O[C@H]1O[C@H](CO)[C@@H](O)[C@H](O)[C@H]1O` [Test sample 21, 2-O-α-D-glucosyl-L-ascorbic acid], in data set [1], the Caking result is on record as “−”. Moreover, the Storage stability entry in data set [3] is given as “−”. With `O=C1O[C@H]([C@@H](O)CO)C(O)=C1O[C@H]1O[C@H](CO)[C@@H](O)[C@H](O)[C@H]1O` [Example 6, 2-O-α-D-glucosyl-L-ascorbic acid], the Caking result in data set [1] is on record as “−”. For the same compound, in data set [2], the “Solubility in 1,3-butylene glycol” value is “Passable solubility”. As for `O=C1O[C@H]([C@@H](O)CO)C(O)=C1O[C@H]1O[C@H](CO)[C@@H](O)[C@H](O)[C@H]1O` [Example for Reference 1, 2-O-α-D-glucosyl-L-ascorbic acid], the Caking entry in data set [1] is reported as “−”. Also, the “Solubility in 1,3-butylene glycol” value in data set [2] was “Impassable solubility”. The Storage stability result in data set [3] was “−”. As to `O=C1O[C@H]([C@@H](O)CO)C(O)=C1O[C@H]1O[C@H](CO)[C@@H](O)[C@H](O)[C@H]1O` [Example 7, 2-O-α-D-glucosyl-L-ascorbic acid], in data set [1], the Caking result was “−”. In addition, the “Solubility in 1,3-butylene glycol” value in data set [2] was “Passable solubility”. Regarding `O=C1O[C@H]([C@@H](O)CO)C(O)=C1O[C@H]1O[C@H](CO)[C@@H](O)[C@H](O)[C@H]1O` [Test sample 11, 2-O-α-D-glucosyl-L-ascorbic acid], the Caking result in data set [1] is recorded as “±”. The Storage stability result in data set [3] is “+”. `O=C1O[C@H]([C@@H](O)CO)C(O)=C1O[C@H]1O[C@H](CO)[C@@H](O)[C@H](O)[C@H]1O` [Example 4, 2-O-α-D-glucosyl-L-ascorbic acid]: in data set [1], the Caking entry is given as “−”. Also, the Storage stability entry in data set [3] was “−”. As to `O=C1O[C@H]([C@@H](O)CO)C(O)=C1O[C@H]1O[C@H](CO)[C@@H](O)[C@H](O)[C@H]1O` [Test sample 2, 2-O-α-D-glucosyl-L-ascorbic acid], the Caking result in data set [1] is given as “+”. Turning to `O=C1O[C@H]([C@@H](O)CO)C(O)=C1O[C@H]1O[C@H](CO)[C@@H](O)[C@H](O)[C@H]1O` [Example 2, 2-O-α-D-glucosyl-L-ascorbic acid], in data set [1], the Caking entry is listed as “−”. The Storage stability entry in data set [3] was “−”. For the compound `O=C1O[C@H]([C@@H](O)CO)C(O)=C1O[C@H]1O[C@H](CO)[C@@H](O)[C@H](O)[C@H]1O` [Test sample 4, 2-O-α-D-glucosyl-L-ascorbic acid], the Caking entry in data set [1] is reported as “−”.
